# Test results from patent US20070054841A1, “Method of treatment of systemic injury secondary to burns” (The University of Queensland, priority 2003, published 2007).
# Entries after “also recorded” stand apart in the source; their conditions may differ.
# What was measured:
# [1] = tested on: rats with second degree burns; format: in vivo, Female Wistar rats; conditions: topical 400 μg/spot immediately after burn; 6 hours after burn
# Experimental: The inhibitory effect of topically applied PMX53 on neutrophil infiltration following a burn was examined after a 6 hour period. In order to verify any effect of PMX53 on the immune system, immunoglobulin […] (IgG) levels were examined. IgM levels can be examined using similar methods. Female Wistar rats of body weight about 250 grams were used in this study. A total of nine rats were used in the experiments, divided into 3 groups of 3 animals each: Both sides of the anaesthetized rat body was shaved. […] Skin samples were collected for histopathology. The change in circulating IgG levels following the administration of PMX53 are illustrated in FIG. 7. IgG levels in plasma were measured using an ELISA assay. IgM levels may also may be determined using conventional ELISA techniques. There was no suppression of IgG over the 6 hr period after burns to 15% of the rat skin surface area (n=3). […] The 6 hr period may be too short for the systemic reaction to the burns to be detectable.
# [2] = tested on: T-cell dependent antigen responses; conditions: rat, in vivo, po, 100 mg/kg/day
# [3] = tested on: rats with full thickness skin burn; test: Rat thermal skin burn (30% of skin area): Evans Blue leakage and macroscopic appearance of lung; format: in vivo, Female Wistar rats
# Experimental: Female Wistar rats of body weight 250-300 grams were used in this study. The rats were divided into three groups: PMX53 treatment involved a subcutaneous injection of PMX53 in distilled water at a dose of 10 mg/kg 30 minutes before the burn. With the rats under deep anaesthesia, a closely-clipped area of skin on the back equivalent to 30% of total skin area was exposed to water at a temperature of 75° C. for 30 seconds. […] To prevent rapid death from the burn, rats were immediately treated with an intraperitoneal infusion of 8-10 ml normal saline. At the same time Evans Blue (EB) at a concentration of 20 mg/kg was injected via the femoral vein. The rats were then kept on a heating pad to maintain normal body temperature, and monitored for 4 hours. Anaesthetic was topped up as required. At the end of the experiment, 1-2 ml of blood was taken and the serum/plasma stored at −20° C., for subsequent assay of serum TNF-α levels. The leakage of EB/albumin from the blood vessels into the subcutaneous tissue was estimated by examining photographs of skin samples.
# [4] = Interaction with silver coated Acticoat dressing: silver ion leaching and surface by scanning electron microscopy; format: physicochemical
# Experimental: (§1) Uniformly sized segments of the Acticoat dressing (10 mm diameter) were incubated in 7 ml PMX53 solution (1.0 mM in sterile water) or sterile water alone at 37° C. for periods of up to 7 days. The segments were then removed and examined using scanning electron microscopy to determine if the silver coating was affected.
# A quantitative assessment of the effect of PMX53 on silver ion leaching was performed by determining the concentration of silver ions in each solution after the incubation described above for 1, 3, 5 and 7 days. Silver ion determination was performed using a Spectroflame model P ICPAES instrument.
# [5] = in vivo
# [6] = PMX53 concentration remaining after incubation with Acticoat dressing (HPLC); format: physicochemical; conditions: throughout the experiment (up to 7 days, 37° C.)
# Experimental: as §1
# An analysis of the concentration of PMX53 remaining in the incubation solutions was performed by high performance liquid chromatography to ascertain if the concentration of PMX53 remained constant throughout the incubation period. PMX53 solution was incubated at 37° C. without a dressing to act as a control.
# granulocytes = conditions: cynomolgus monkey, in vivo, po, 100 mg/kg/day
# [7] = tested on: rats with full thickness skin burn; test: Rat thermal skin burn (30%): bronchoalveolar lavage cell number and lung myeloperoxidase; format: in vivo, Female Wistar rats; conditions: 10 mg/kg SC pretreatment, 4 hours after burn injury, versus untreated burned animals
# Experimental: A separate series of experiments was performed in the same way to determine myeloperoxidase (MPO) levels in the lung. In this experiment the groups were as follows: Immediately after the 4 hr monitoring period following the burn the lungs were flushed with 10 ml of saline via the pulmonary artery. Bronchoalveolar lavage (BAL) fluid was collected by an irrigation of 1 ml of saline at 37° C. into the lung once through the trachea and the total number of cells present in the lavage fluid was determined. Approximately 50% of the left lung was weighed, then homogenized in 1 ml solution of 0.05% sodium azide in 0.1M PBS (pH 6.4), and then sonicated and centrifuged. The MPO levels in the supernatants of lungs were determined using a tissue MPO assay, and the results were calculated as absorbance/tissue weight (g). Samples of affected skin, lung, liver and kidney were collected for histopathology.
smiles,measurement,setting,value
"CC(=O)N[C@@H](Cc1ccccc1)C(=O)N[C@H]1CCCNC(=O)[C@H](CCCNC(=N)N)NC(=O)[C@H](Cc2c[nH]c3ccccc23)NC(=O)[C@@H](CC2CCCCC2)NC(=O)[C@@H]2CCCN2C1=O [PMX53, AcPhe[Orn-Pro-D-Cyclohexylalanine-Trp-Arg]]",neutrophil recruitment in burned skin (histology),[1],less neutrophil recruitment
same,structural damage of burned skin (histology),[1],same structural damage as burned skin
same,T-cell dependent antigen responses,[2],did not attenuate or increase
same,degree of EB infiltration in the subcutaneous tissues,"[3]; 10 mg/kg SC 30 minutes before burn, 4 hours after burning, drug-treated versus untreated burned rats",no appreciable difference
same,"leakage of Evans Blue (plasma) into burnt skin, blue staining and thickening","[3]; 10 mg/kg SC 30 minutes before burn, compared to burn-only group",less blue staining and less thickening; also recorded: markedly less plasma leakage into the skin
same,"macroscopic appearance of the lung (EB staining, consolidation)","[3]; 10 mg/kg SC pretreatment, 4 hours after burn",colour and texture similar to those of the normal lungs; also recorded: appear normal
same,changes at the surface of Acticoat dressing segments (scanning electron microscopy),"[4]; 7 days incubation with PMX53, magnification of 2000",no apparent changes
same,factor of increase in leaching of silver ions from Acticoat dressing,"[4]; PMX53 1 mM, after 1 day of incubation at 37° C.",2.5
same,penetration through normal rat skin,[5],0.16 %/cm^2
same,systemic level of the drug after topical administration compared with other routes,[5]; rat,lower systemic level
same,concentration of PMX53 incubated with Acticoat dressing compared to control PMX53 solution,[6],did not change
same,phagocytosis or oxidative burst functions of granulocytes,granulocytes,did not detectably impair
same,total number of cells in bronchoalveolar lavage fluid,[7],"cell numbers approaching those found in the sham-operated, unburned animals"
same,total number of cells in bronchoalveolar lavage fluid,[7]; listed as PMX35,dramatically less
